# Experiments:
# hGSPT1 = target: T1, hGSPT1 (Homo sapiens, UniProt P15170+Q96SW2); experiment: hGSPT1 HiBiT assay (level of GSPT1 HiBiT tag protein, Nano-Glo HiBiT Lytic Detection); type: cell-based; conditions: HEK293 hGSPT1 HiBiT tag cells, 4 hrs incubation
# T1 construct: host or cells: HEK293
# Method: HEK293 hGSPT1 HiBiT tag cells were seeded in white 384-well assay plates at density of 800 cells per well in triplicates. After overnight incubation, cells were treated with compounds in dose-response format using a Pintool on a Biomek FXP Laboratory Automation Workstation (Beckman Coulter). After 4 hrs incubation, the level of GSPT1 HiBiT tag protein was evaluated using Nano-Glo® HiBiT Lytic Detection System (Promega) according to the manufacturer's instruction. Luminescence signal was measured using an Envision plate reader (Perkin-Elmer).
# MHHCALL4 cells = experiment: Cell proliferation assay (Cell Titer-Glo), MHH-CALL-4 cells; type: cell-based, human; conditions: 72 h incubation; for EC50: Homo sapiens
# Method: (§1) MV-4-11 cell line was purchased from the American Type Culture Collection (ATCC, Manassas, VA) and maintained in Iscove's Modified Dulbecco's medium (IMDM; (ATCC) supplemented with 10% FBS. MHHCALL4 cell line was purchased from the German Collection of Microorganisms and Cell Cultures GmbH (DSMZ) and maintained in RPMI 1640 medium supplemented with 10% fetal bovine serum (HyClone), penicillin/streptomycin (100 U/mL), and glutamine ([…]) at 37° C. in a humidified 5% C02 incubator. Exponentially growing MV-4-11 cells were plated at 1250 cells per well and MHH-CALL-4 cells were plated at 7,500 cells per well in Corning 8804BC white 384-well assay plates and incubated overnight at 37° C. in a humidified 5% CO2 incubator. Compounds were transferred to the assay plate from a dose-response plate using a Pintool on a Biomek FXP Laboratory Automation Workstation (Beckman Coulter). Cytotoxicity was determined following 72 hours of incubation using Promega Cell Titer Glo reagent according to the manufacturer's recommendation. Luminescence was measured on an Envision plate reader (Perkin-Elmer).
# (§2) Compounds were screened in human cancer cell lines and each cell line was cultured in the complete medium recommended by the vendor and seeded in Corning 8804BC white 384-well assay plates at density of 1250 cells per well for MV-4-11 cells and of 7,500 cells per well for MHH-CALL-4 cells. After overnight incubation at 37° C. in a humidified 5% CO2 incubator, cells were treated with compounds in dose-response format using a Pintool on a Biomek FXP Laboratory Automation Workstation (Beckman Coulter). After 72 h incubation, cell proliferation was assessed using Cell Titer-Gbo (CTG) luminescent cell viability assay (Promega) according to the manufacturer's instruction. Luminescence signal was measured using an Envision plate reader (Perkin-Elmer).
# MV-4-11 cells = experiment: Cell proliferation assay (Cell Titer-Glo), MV-4-11 cells; type: cell-based; conditions: Homo sapiens, MV4-11; MV411 cells, 72 h incubation
# Method: as §1, §2
# neosubstrate degradation = conditions: more potent in cells than lenalidomide; see Ref. 13; cited from earlier work
# T1 sequence (P15170 whole entry): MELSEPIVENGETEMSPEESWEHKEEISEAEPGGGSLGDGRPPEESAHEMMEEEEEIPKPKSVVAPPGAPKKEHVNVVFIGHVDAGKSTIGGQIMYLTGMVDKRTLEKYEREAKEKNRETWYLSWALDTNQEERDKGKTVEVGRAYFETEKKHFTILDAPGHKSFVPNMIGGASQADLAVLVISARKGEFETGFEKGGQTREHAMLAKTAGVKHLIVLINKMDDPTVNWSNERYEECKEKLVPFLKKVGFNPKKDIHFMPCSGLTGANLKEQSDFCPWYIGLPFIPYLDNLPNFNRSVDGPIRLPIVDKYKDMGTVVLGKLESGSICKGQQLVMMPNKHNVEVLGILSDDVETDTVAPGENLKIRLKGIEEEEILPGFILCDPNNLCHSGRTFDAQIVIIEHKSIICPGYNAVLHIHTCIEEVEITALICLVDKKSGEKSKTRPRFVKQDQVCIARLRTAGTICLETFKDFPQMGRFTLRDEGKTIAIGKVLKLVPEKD
# T1 sequence (Q96SW2 whole entry): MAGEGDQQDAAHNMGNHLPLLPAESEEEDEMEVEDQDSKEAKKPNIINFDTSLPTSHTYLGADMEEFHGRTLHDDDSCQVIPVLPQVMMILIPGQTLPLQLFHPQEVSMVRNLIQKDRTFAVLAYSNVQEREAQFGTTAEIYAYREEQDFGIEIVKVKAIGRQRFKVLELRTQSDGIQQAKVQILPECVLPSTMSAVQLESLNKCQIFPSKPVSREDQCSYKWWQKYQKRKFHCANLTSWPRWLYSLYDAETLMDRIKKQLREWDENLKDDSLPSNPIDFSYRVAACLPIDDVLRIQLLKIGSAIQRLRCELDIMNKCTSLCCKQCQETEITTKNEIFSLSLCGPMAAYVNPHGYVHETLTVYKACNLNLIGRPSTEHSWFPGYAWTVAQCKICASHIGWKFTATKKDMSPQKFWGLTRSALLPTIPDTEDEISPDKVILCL
# T1 sequence (Q16531 whole entry partner): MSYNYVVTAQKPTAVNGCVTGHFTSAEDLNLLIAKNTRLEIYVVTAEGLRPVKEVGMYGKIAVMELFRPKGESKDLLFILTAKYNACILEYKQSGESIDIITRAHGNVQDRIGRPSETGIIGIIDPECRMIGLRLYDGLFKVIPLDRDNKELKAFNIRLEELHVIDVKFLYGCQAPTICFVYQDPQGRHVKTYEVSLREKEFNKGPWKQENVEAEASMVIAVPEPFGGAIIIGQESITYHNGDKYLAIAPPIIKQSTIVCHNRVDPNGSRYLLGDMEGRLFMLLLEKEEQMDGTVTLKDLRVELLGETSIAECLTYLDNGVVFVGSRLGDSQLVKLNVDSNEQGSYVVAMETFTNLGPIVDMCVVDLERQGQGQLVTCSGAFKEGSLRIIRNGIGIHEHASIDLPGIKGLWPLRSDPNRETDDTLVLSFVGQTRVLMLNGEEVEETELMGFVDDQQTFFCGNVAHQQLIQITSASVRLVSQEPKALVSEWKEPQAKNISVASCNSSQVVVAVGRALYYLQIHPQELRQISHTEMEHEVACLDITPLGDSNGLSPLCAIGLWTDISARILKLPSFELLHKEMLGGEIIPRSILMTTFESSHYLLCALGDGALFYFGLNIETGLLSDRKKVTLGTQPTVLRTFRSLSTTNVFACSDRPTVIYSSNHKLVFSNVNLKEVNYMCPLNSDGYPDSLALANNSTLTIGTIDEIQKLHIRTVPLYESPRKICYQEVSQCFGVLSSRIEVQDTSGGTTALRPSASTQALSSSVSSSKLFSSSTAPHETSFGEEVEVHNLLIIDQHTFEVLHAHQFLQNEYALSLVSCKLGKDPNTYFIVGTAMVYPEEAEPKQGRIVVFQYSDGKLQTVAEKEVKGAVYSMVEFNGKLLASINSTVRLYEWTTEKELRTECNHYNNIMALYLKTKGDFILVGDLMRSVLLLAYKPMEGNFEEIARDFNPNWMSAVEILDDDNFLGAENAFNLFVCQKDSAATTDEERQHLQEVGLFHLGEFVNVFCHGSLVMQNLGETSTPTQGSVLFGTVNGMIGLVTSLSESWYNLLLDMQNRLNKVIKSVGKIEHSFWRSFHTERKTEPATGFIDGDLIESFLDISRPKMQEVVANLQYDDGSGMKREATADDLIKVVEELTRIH
SMILES,DC50 (hGSPT1) [nM],EC50 (MHHCALL4 cells) [nM],EC50 (MV-4-11 cells) [nM],potency in cells relative to lenalidomide (neosubstrate degradation) [fold],"MHHCALL4 Cell Proliferation Assay, result in words (MHHCALL4 cells; printed in place of an EC50)"
O=C1CCC(N2Cc3cc(CC(=O)Nc4ccc(N5CCCCC5)cc4)ccc3C2=O)C(=O)N1 (stereo not drawn) [Compound 23],< 1,< 1,2,–,–
O=C1CCC(N2Cc3cc(CC(=O)Nc4cccc(OCc5ccccc5)c4)ccc3C2=O)C(=O)N1 (stereo not drawn) [Compound 22],< 1,< 1,< 1,–,–
COc1cccc(NC(=O)Cc2ccc3c(c2)CN(C2CCC(=O)NC2=O)C3=O)c1 (stereo not drawn) [Compound 19],–,< 1,5,–,–
O=C(Cc1ccc2c(c1)CN(C1CCC(=O)NC1=O)C2=O)NCc1ccc(F)cc1 (stereo not drawn) [Compound 9],< 1,< 1,3,–,–
O=C(Cc1ccc2c(c1)CN(C1CCC(=O)NC1=O)C2=O)NCCc1ccccc1 (stereo not drawn) [Compound 11],< 1,< 1,–,–,–
O=C1CCC(N2Cc3cc(CC(=O)N4CCCCC4)ccc3C2=O)C(=O)N1 (stereo not drawn) [Compound 15],–,> 10700,> 8700,–,–
O=C(Cc1ccc2c(c1)CN(C1CCC(=O)NC1=O)C2=O)NCc1ccccc1 (stereo not drawn) [Compound 1],< 1,< 1,< 1,–,–
O=C1CC[C@H](N2Cc3c(OCc4ccc(CN5CCOCC5)cc4)cccc3C2=O)C(=O)N1 [CC-220],–,–,–,10,–
O=C(Cc1ccc2c(c1)CN(C1CCC(=O)NC1=O)C2=O)NCc1cccc(C(F)(F)F)c1 (stereo not drawn) [Compound 10],< 1,< 1,< 1,–,–
O=C(Cc1ccc2c(c1)CN(C1CCC(=O)NC1=O)C2=O)NCC1CC1 (stereo not drawn) [Compound 7],–,> 10100,> 8200,–,–
O=C1CCC(N2Cc3cc(CC(=O)Nc4cccc(Cl)c4)ccc3C2=O)C(=O)N1 (stereo not drawn) [Compound 20],< 1,< 1,5,–,–
O=C(Cc1ccc2c(c1)CN(C1CCC(=O)NC1=O)C2=O)NCc1cccc2ccccc12 (stereo not drawn) [Compound 12],< 1,< 1,5,–,–
CC(C)NC(=O)Cc1ccc2c(c1)CN(C1CCC(=O)NC1=O)C2=O (stereo not drawn) [Compound 6],–,> 8500,> 6900,–,–
O=C(Cc1ccc2c(c1)CN(C1CCC(=O)NC1=O)C2=O)NCc1ccc(Cl)cc1 (stereo not drawn) [Compound 16],< 1,< 1,–,–,–
O=C1CCC(N2Cc3cc(CC(=O)Nc4ccccc4)ccc3C2=O)C(=O)N1 (stereo not drawn) [Compound 17],> 8100,4,744,–,–
Cc1ccc(CNC(=O)Cc2ccc3c(c2)CN(C2CCC(=O)NC2=O)C3=O)cc1 (stereo not drawn) [Compound 8],< 1,< 1,< 1,–,–
O=C1CCC(N2Cc3cc(CC(=O)NC4CCCCC4)ccc3C2=O)C(=O)N1 (stereo not drawn) [Compound 2],> 7100,–,> 5800,–,cytostatic at 10 nM
CCN(CC)C(=O)Cc1ccc2c(c1)CN(C1CCC(=O)NC1=O)C2=O (stereo not drawn) [Compound 5],–,–,> 1730,–,–
Cc1ccccc1NC(=O)Cc1ccc2c(c1)CN(C1CCC(=O)NC1=O)C2=O (stereo not drawn) [Compound 18],> 5970,2,> 4900,–,–
COCCNC(=O)Cc1ccc2c(c1)CN(C1CCC(=O)NC1=O)C2=O (stereo not drawn) [Compound 4],–,> 8200,> 6700,–,–
CCN(C(=O)Cc1ccc2c(c1)CN(C1CCC(=O)NC1=O)C2=O)c1ccccc1 (stereo not drawn) [Compound 3],–,> 10700,> 8700,–,–
O=C1CCC(N2Cc3cc(CC(=O)Nc4cccc(F)c4)ccc3C2=O)C(=O)N1 (stereo not drawn) [Compound 21],> 3110,< 1,> 4500,–,–
COc1ccc(NC(=O)Cc2ccc3c(c2)CN(C2CCC(=O)NC2=O)C3=O)cc1 (stereo not drawn) [Compound 13],< 1,< 1,< 1,–,–
O=C1CCC(N2Cc3cc(CC(=O)N4CCOCC4)ccc3C2=O)C(=O)N1 (stereo not drawn) [Compound 14],> 2700,21,> 2200,–,–

# Source: patent US20250034107A1, “SUBSTITUTED 2-(2-(2,6-DIOXOPIPERIDIN-3-YL)-1- OXOISOINDOLIN-5-YL) ACETAMIDE ANALOGS AS MODULATORS OF GSPT1 AND/OR IKZF1 PROTEIN” (St. Jude Children's Research Hospital, Inc., priority 2021, published 2025)
